From ChEMBL document CHEMBL4118102 (J Med Chem, 2018)

Assays:
[1] = target: Neuraminidase (Influenza A virus) (UniProt B4URF0); conditions: A/Mississippi/03/01 (H1N1)
Influenza B virus = assay: Antiviral activity against Influenza B virus (B/Perth/211/2001) infected in MDCK cells assessed as reduction in plaque formation measured after 3 days post infection by neutral red staining-based assay; format: functional, organism-based; conditions: 72 h
[2] = target: Neuraminidase (Influenza A virus) (UniProt B4URF0); conditions: A/swine/Shepparton/6/2009 (H1N1)
Influenza A virus [3] = assay: Antiviral activity against Influenza A virus (A/Victoria/503/06) infected in MDCK cells assessed as reduction in plaque formation measured after 3 days post infection by neutral red staining-based assay; format: functional, organism-based
Influenza A virus [4] = assay: Antiviral activity against Influenza A virus (A/Fukui/45/04(H3N2)) infected in MDCK cells assessed as reduction in plaque formation measured after 3 days post infection by neutral red staining-based assay; format: functional, organism-based, Influenza A virus (A/Fukui/45/2004(H3N2)); conditions: 72 h
[5] = target: Neuraminidase (Influenza A virus (A/Memphis/1/1971(H3N2))) (UniProt P03471); conditions: Influenza A virus (A/Fukui/45/2004(H3N2))
Chain of Neuraminidase (Influenza A virus (A/Memphis/1/1971(H3N2))) (P03471 whole entry): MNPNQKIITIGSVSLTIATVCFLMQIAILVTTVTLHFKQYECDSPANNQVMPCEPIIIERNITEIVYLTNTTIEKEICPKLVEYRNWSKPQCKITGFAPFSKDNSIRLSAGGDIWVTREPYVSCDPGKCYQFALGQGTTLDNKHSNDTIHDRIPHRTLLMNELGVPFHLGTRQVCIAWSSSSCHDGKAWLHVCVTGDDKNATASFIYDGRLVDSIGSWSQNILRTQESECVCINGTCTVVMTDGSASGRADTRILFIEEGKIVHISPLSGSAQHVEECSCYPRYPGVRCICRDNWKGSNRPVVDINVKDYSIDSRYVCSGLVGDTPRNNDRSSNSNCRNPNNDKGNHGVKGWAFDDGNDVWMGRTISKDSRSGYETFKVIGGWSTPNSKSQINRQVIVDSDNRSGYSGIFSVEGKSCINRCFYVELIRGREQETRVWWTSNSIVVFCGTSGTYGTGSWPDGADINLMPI

[6] = target: Neuraminidase (Influenza A virus) (UniProt B4URF0); conditions: A/chicken/Vietnam/08/2004 (H5N1) clade 1
Influenza A virus [7] = assay: Antiviral activity against Influenza A virus (A/Mississippi/03/01 (H1N1)) infected in MDCK cells assessed as reduction in plaque formation measured after 3 days post infection by neutral red staining-based assay; format: functional, organism-based; conditions: 72 h
Neuraminidase [8] = target: T1, Neuraminidase (Influenza B virus, UniProt Q3S340); set-up: species or system Influenza B virus (B/Perth/211/2001)
T1 sequence (Q3S340 whole entry): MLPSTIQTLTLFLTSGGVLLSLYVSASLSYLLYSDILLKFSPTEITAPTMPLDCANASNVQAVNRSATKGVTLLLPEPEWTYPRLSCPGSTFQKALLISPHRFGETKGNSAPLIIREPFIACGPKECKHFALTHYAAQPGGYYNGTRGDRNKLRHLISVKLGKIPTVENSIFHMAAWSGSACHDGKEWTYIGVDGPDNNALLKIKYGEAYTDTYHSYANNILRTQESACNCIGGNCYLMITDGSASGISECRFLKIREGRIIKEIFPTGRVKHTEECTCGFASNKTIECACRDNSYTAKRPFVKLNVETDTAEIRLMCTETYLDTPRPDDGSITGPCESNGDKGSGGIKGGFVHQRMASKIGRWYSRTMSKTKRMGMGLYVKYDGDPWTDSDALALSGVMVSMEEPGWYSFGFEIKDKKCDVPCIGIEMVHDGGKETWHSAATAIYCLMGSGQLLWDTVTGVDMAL

[9] = target: Neuraminidase (Influenza B virus) (UniProt Q3S340); conditions: Influenza B virus (B/Perth/211/2001)
Chain of Neuraminidase (Influenza B virus) (Q3S340 as listed by the source): as the sequence (Q3S340 whole entry) above

Neuraminidase [10] = target: T1, Neuraminidase; set-up: species or system Influenza B virus (B/Perth/211/2001); remark: listed apart in the source
[11] = target: Neuraminidase (Influenza A virus) (UniProt A5Z252); conditions: Influenza A virus (A/chicken/Bangli/BBVD-563/2007(H5N1)); clade 2
Neuraminidase [12] = target: T2, Neuraminidase (Influenza A virus, UniProt B4URF0)
Neuraminidase [13] = target: T2, Neuraminidase; remark: listed apart in the source
Neuraminidase [14] = target: T2, Neuraminidase; remark: listed apart in the source
Neuraminidase [15] = target: T2, Neuraminidase; remark: listed apart in the source
Neuraminidase [16] = target: T2, Neuraminidase; remark: listed apart in the source
Neuraminidase [17] = target: T3, Neuraminidase (Influenza A virus, UniProt A5Z252); set-up: species or system Influenza A virus (A/chicken/Bangli/BBVD-563/2007(H5N1)), clade 2
[18] = target: Neuraminidase (Influenza A virus (A/Memphis/1/1971(H3N2)), UniProt P03471); set-up: species or system Influenza A virus (A/Fukui/45/2004(H3N2))
Chain of Neuraminidase (Influenza A virus (A/Memphis/1/1971(H3N2)), UniProt P03471) (P03471 whole entry): as the sequence (P03471 whole entry) above

Neuraminidase [19] = target: T2, Neuraminidase; remark: listed apart in the source
Neuraminidase [20] = target: T2, Neuraminidase; remark: listed apart in the source
[21] = target: Neuraminidase (Influenza A virus (A/Memphis/1/1971(H3N2)), UniProt P03471); set-up: species or system Influenza A virus (A/Fukui/45/2004(H3N2)); remark: listed apart in the source
Neuraminidase [22] = target: T3, Neuraminidase; set-up: species or system Influenza A virus (A/chicken/Bangli/BBVD-563/2007(H5N1)), clade 2; remark: listed apart in the source
Neuraminidase [23] = target: T2, Neuraminidase; remark: listed apart in the source
[24] = Influenza A virus, A/Victoria/503/06, MDCK, 72 h

Row | SMILES | T1/2 [1] [min] | EC50 (Influenza B virus) [nM] | T1/2 [2] [min] | EC50 (Influenza A virus [4]) [µM] | T1/2 [5] [min] | T1/2 [6] [min] | EC50 (Influenza A virus [7]) [nM] | IC50 (Neuraminidase [8]) [nM] | T1/2 [9] [h] | IC50 (Neuraminidase [10]) [nM] | T1/2 [11] [min] | EC50 (Influenza A virus [3]; [24]) [µM] | IC50 (Neuraminidase [12]) [µM] | IC50 (Neuraminidase [13]) [µM] | IC50 (Neuraminidase [14]) [µM] | IC50 (Neuraminidase [15]) [µM] | IC50 (Neuraminidase [16]) [µM] | IC50 (Neuraminidase [17]) [nM] | IC50 [18] [nM] | IC50 (Neuraminidase [22]) [nM] | further results
1 | CC(=O)N[C@@H]1[C@@H](O)[C@@H](F)[C@](F)(C(=O)O)O[C@H]1C[C@H](O)CO | 29.2 | 1000 to 10000 | 15.8 | 10 to 100 | 13.9 | 15 | 100 to 1000 | 40 | 1.15 | 228 | 12.3 |  |  |  |  |  |  |  |  |  | EC50 (Influenza A virus [3]; mdck): 10 µM
2 | CC(=O)N[C@H]1[C@H]([C@H](O)[C@H](O)CO)OC(C(=O)O)=C[C@@H]1NC(=N)N [ZANAMIVIR] |  | 10 |  | 0.1 |  |  | ≤ 1 |  |  |  | 72.8 | 0.0001 to 0.001 |  |  |  |  |  |  |  |  | 
3 | CC(=O)N[C@@H]1C[C@@H](F)[C@](F)(C(=O)O)O[C@H]1[C@H](O)[C@H](O)CO | 26.7 | 1000 | 11.6 | 100 | 13.4 | 13.7 | 1000 | 27 | 0.487 | 76 | 10.6 | 10 | 0.474 | 1.4 | 0.048 | 0.985 | 0.49 | 535 | 318 | 583 | IC50 (Neuraminidase [19]): 0.49 µM; IC50 (Neuraminidase [20]): 69 nM; IC50 [21]: 0.313 µM; IC50 (Neuraminidase [23]): 0.428 µM
4 | CC(=O)N[C@@H]1[C@@H](O)[C@@H](F)[C@](F)(C(=O)O)O[C@H]1[C@H](O)[C@@H](C)O | 37.5 | 10000 to 100000 | 24.5 |  | 29.7 | 17.2 | 10000 to 100000 |  | > 4 | 9190 | 16.9 | ≥ 100 |  |  |  |  |  |  |  |  | 
5 | CC(=O)N[C@@H]1[C@@H](O)[C@@H](F)[C@](F)(C(=O)O)O[C@H]1[C@H](O)CCO | 30.4 | 10000 to 100000 | 17.8 | ≥ 100 | 25.1 | 19.4 | 10000 |  | 3.09 | 7620 | 23.6 | ≥ 100 | 25.8 | 17 | 8.29 | 21.7 | 22.4 | 28200 | 5010 | 24500 | IC50 (Neuraminidase [19]): 22 µM; IC50 (Neuraminidase [20]): 2610 nM; IC50 [21]: 28.7 µM; IC50 (Neuraminidase [23]): 25.8 µM
6 | CC(=O)N[C@@H]1[C@@H](O)[C@@H](F)[C@](F)(C(=O)O)O[C@H]1[C@H](O)[C@H](O)CO | 24.8 | 1000 | 11.8 | 100 | 17.6 | 12 | 1000 | 65 | 0.727 | 414 | 8.5 | 100 |  |  |  |  |  | 889 |  | 863 | 
